Key:
[1] = test system: MDA-MB-231 breast cancer cells; assay: IncuCyte Caspase 3/7 apoptosis assay; assay type: cell-based; settings: for apoptosis (Caspase 3/7): MDA-MB-231, single agent
TOV-21G cells [2] = assay: Multipolar mitotic spindle scoring by NuMA and α-tubulin co-staining; assay type: cell-based; settings: 24 hours
Description: (§1) (B) The frequency of mitotic cells with multipolar spindles was scored in at least 50 cells from each treatment condition. Shown is the mean ± SD of three independent experiments. […] Microtubules and DNA were visualized by staining with anti-α-tubulin antibody (green) and DAPI (blue), respectively. The frequency of interphase cells with visually abnormal nuclei, including satellite nuclei and multinucleation, was scored in at least 100 cells per treatment condition. Shown is the mean ± SD of three independent experiments.
(§2) Cells grown on glass coverslips were fixed in 4% paraformaldehyde for 15 min, followed by permeabilization with 0.5% Triton X-100 in PBS for 5 min. The cells were then incubated with α-tubulin (DM1A) mouse monoclonal antibody (Cell Signaling Technology, Danvers, MA), γ-tubulin (GTU-88) mouse monoclonal antibody (Sigma-Aldrich, St. Louis, MO) or NuMA (GT3611) mouse monoclonal antibody (Thermo Scientific, Rockford, IL) followed by Alexa Fluor 488 or 546 conjugated secondary antibodies (Invitrogen, Carlsbad, CA). Images were obtained with a Zeiss AX10 microscope (Carl Zeiss Micro-Imaging, Inc., Jena, Germany) equipped with a 20 X, 40X, or 63 X objective and standard filter set.
(A) Immunostaining for α-tubulin (green), NuMA
(red), and DNA (blue). (B) The frequency of mitotic cells with multipolar spindles was scored in at least 100 cells from each treatment
(§3) (1 picture or pasted object on this page, not shown here)

[3] = test system: TOV-21G ovarian cancer cells; assay: Multipolar mitotic spindle scoring by α-tubulin staining; assay type: cell-based; settings: 24 hours; for frequency of multipolar mitotic spindle formation, single agent: paclitaxel 2 nM, ACY-241 2 μM, ACY-1215 2 μM, control 3.1%; for frequency of multipolar spindle formation, combination with paclitaxel: HDAC6 inhibitor 2 μM plus paclitaxel 2 nM
Method: as §2
for α-tubulin (red) and DNA (blue) identified mitotic cells with multipolar spindles. (B) The frequency of multipolar spindle formation in
M phase cells was scored in at least 50 cells per treatment condition.
as §3

[4] = test system: A2780, TOV-21G and MDA-MB-231 cells; assay: MTS cell viability assay; assay type: cell-based; settings: 72 h, range over A2780, TOV-21G and MDA-MB-231 cells, 3 days, read-out: single agent viability IC50
Method: CellTiter 96® AQueous One Solution; Promega; Madison, WI, USA) dye absorbance. Cells (A2780, TOV-21G, MDA-MB-231) from 72 hour cultures were pulsed with 5 μL of CellTiter 96® AQueous One Solution in each well. The 384-well plates were incubated at 37°C for 5 hours, and absorbance was read in triplicate at a wavelength of 490 nm (with background correction using readings at 650 nm) on a spectrophotometer (Molecular Devices Corp.; Sunnyvale, CA, USA). […] The IC50 for each agent in each cell line is indicated in the legend of each graph. Real-time kinetic trace graphs of (C) cell proliferation and (D) induction of apoptosis were generated in the MDA- MB-231 breast cancer cell line. […] The mean and SEM of three replicate samples are shown. […]

[5] = test system: phospho-histone H3 (pH3) positive cells; assay: Phospho-histone H3 / DNA content flow cytometry for M phase cells; assay type: cell-based; settings: for pH3 positive cells (M phase): low dose 6 nM
Method: arrest. (A) Dual parameter phospho-histone H3 (y axis, M phase cells) and FxCycle Far Red (x axis, DNA content) staining indicate the […]
High dose treatment of paclitaxel (100 nM) served as a positive control for M phase arrest. (B) Phase contrast micrographs were taken at the indicated time points after treatment of the samples in panel (A).
as §3

[6] = test system: MDA-MB-231 breast cancer cells; assay: IncuCyte live-cell proliferation assay; assay type: cell-based; settings: for proliferation (absolute cell number): MDA-MB-231, single agent
[7] = Tolerability and body weight in xenograft-bearing mice; settings: for body weight change: MiaPaCa-2 model, combination treatment with paclitaxel; for tolerability in mice: dosed as a single agent and in combination with paclitaxel
MiaPaCa-2 xenografts = assay: MiaPaCa-2 pancreatic cancer xenograft; assay type: in vivo, mice; settings: MiaPaCa-2 xenograft, HDAC6 inhibitor 50 mg/kg IP plus paclitaxel 10 mg/kg
A2780 xenografts = assay: A2780 ovarian cancer xenograft; assay type: in vivo, mice; settings: HDAC6 inhibitor 50 mg/kg IP plus paclitaxel 10 mg/kg
TOV-21G xenografts = assay: TOV-21G ovarian cancer xenograft; assay type: in vivo, mice; settings: TOV-21G xenograft, HDAC6 inhibitor 50 mg/kg IP plus paclitaxel 10 mg/kg
TOV-21G cells [8] = assay: Scoring of interphase cells with abnormal nuclei; assay type: cell-based; settings: 48 hours
Description: as §1, §2

[9] = test system: α-tubulin acetylation in A2780 ovarian cancer cells; assay: Immunoblotting of acetylated α-tubulin in A2780 cells; assay type: cell-based
Method: (§4) Lysates were sonicated 2 to 3 times for 30 sec in medium (Diagenode, Bioruptor 300).
(§5) For western blot analysis, equal amounts of protein were loaded and size separated on Bolt™ 4 to 12% Bis-Tris Plus Gels. Proteins were subsequently transferred onto polyvinylidene difluoride (PVDF) membrane using an iBlot® 2 Dry Blotting System (Invitrogen). Immunoblotting was carried out according to standard protocols with antibodies against histone H3 acetyl-lysine 56 (abcam), histone-H4, pantropic (Millipore), acetyl-α-tubulin (Sigma); and β-Actin (Sigma). Antigen-antibody complexes were detected using secondary antibodies conjugated with horseradish […] (HRP) and visualized using enhanced chemiluminescence (GE Healthcare; Piscataway, NJ).

[10] = test system: A2780, TOV-21G and MiaPaCa-2 cells; assay: EdU / FxCycle flow cytometry cell cycle assessment in multiple cell lines (Figure 4B, 4C); assay type: cell-based
[11] = test system: α-tubulin acetylation in A2780 and MDA-MB-231 cells; assay: Immunoblotting of acetylated α-tubulin after combination treatment; assay type: cell-based; settings: 48 hours
Method: A2780 and MDA-MB-231 cells were treated for 48 hours with the indicated concentrations of each drug and whole cell protein lysates were subjected to immunoblotting using antibodies for acetylated-α-tubulin and β-actin.
as §4, §5
For WES analysis, lysates were separated by an automated capillary-based electrophoresis system (WES, ProteinSimple, San Jose, CA). All procedures were performed according to the manufacturer's recommendations using the supplied reagents. […] The resulting data were analyzed using Compass software (ProteinSimple).

TOV-21G cells [12] = assay: Live cell time-lapse imaging of cell division; assay type: cell-based; settings: ACY-241 2 μM plus paclitaxel 5 nM, up to 48 hours
Method: Time-lapse imaging was obtained on a Zeiss AX10 live-cell microscope coupled with a CO2 and temperature-maintenance system, and a time-lapse recording system supporting multi-location time series acquisition (SlideBook6 x64, Intelligent Imaging Innovations, Inc., Ringsby, CT). After staining with 10 nM Hoechst33342, TOV-21G cells were incubated in 10% CO2 at 37°C and time-lapse images were acquired at 2 min intervals up to 48 hours with a CoolSNAP HQ2 CCD camera (Photometrics, Tucson, AZ). […]
monitored by live cell time-lapse microscopy. (A) The number of observed mitotic cells, unresolved mitoses, and frequency of bipolar and multipolar division from resolved mitosis were assessed. (B) Fluorescent and matched phase-contrast time-lapse images of representative mitoses in TOV-21G cells treated with the drug combination. Numbers show elapsed time after drug treatment (hour:minute:second), the color of circles differentiates individual cells being monitored, and dashed circles indicate observation of cell death. Panels labeled with lower case letters (a-e) identify timepoints with matched phase contrast images below (a’-e’).
as §3

[13] = test system: histone H3 acetylation in A2780 ovarian cancer cells; assay: Immunoblotting of acetylated histone H3 (H3K56) in A2780 cells; assay type: cell-based; settings: 24 hour treatment
Method: as §4, §5

[14] = MDA-MB-231, relative to either single agent

CC(=O)O[C@H]1C(=O)[C@@]2(C)[C@H]([C@H](OC(=O)c3ccccc3)[C@]3(O)C[C@H](OC(=O)[C@H](O)[C@@H](NC(=O)c4ccccc4)c4ccccc4)C(C)=C1C3(C)C)[C@]1(OC(C)=O)CO[C@@H]1C[C@@H]2O [paclitaxel, reference compound]
apoptosis (Caspase 3/7) ([1]; up to 2 nM): did induce apoptosis after longer duration of exposure
frequency of multipolar spindle formation, single agent (TOV-21G cells [2]; NuMA/α-tubulin co-staining (Figure 6B)): 30.4%
frequency of multipolar mitotic spindle formation, single agent [3]: 15.2%
IC50 [4]: 2.3 to 3.2 nM
cell cycle arrest at M phase ([5]; high concentration 100 nM, 8 to 24 hours): induced cell cycle arrest at mitosis (M) phase
pH3 positive cells (M phase) ([5]; 8 hours, DMSO […]): 14%
pH3 positive cells (M phase) ([5]; 24 hours): 4.1%
proliferation (absolute cell number) ([6]; up to 2 nM): modestly reduced cell proliferation

O=C(CCCCCCNC(=O)c1cnc(N(c2ccccc2)c2ccccc2)nc1)NO [ricolinostat]
body weight change [7]: did not result in body weight loss
tolerability in mice [7]: well tolerated
frequency of multipolar spindle formation, combination with paclitaxel [3]: 41.3%
frequency of multipolar mitotic spindle formation, single agent [3]: 12.6%
suppression of tumor growth, combination with paclitaxel (MiaPaCa-2 xenografts): significantly greater suppression of tumor growth relative to either single agent
suppression of tumor growth, combination with paclitaxel (A2780 xenografts): significantly greater suppression of tumor growth relative to either single agent
suppression of tumor growth, combination with paclitaxel (TOV-21G xenografts): significantly greater suppression of tumor growth relative to either single agent

O=C(CCCCCCNC(=O)c1cnc(N(c2ccccc2)c2ccccc2Cl)nc1)NO [ACY-241]
body weight change [7]: did not result in body weight loss
tolerability in mice [7]: well tolerated
apoptosis, combination with paclitaxel [1, 14]: enhanced apoptosis
apoptosis (Caspase 3/7) ([1]; 10 μM): significant induction of apoptosis
apoptosis (Caspase 3/7) ([1]; doses up to 3 μM, 96 hours): without inducing apoptosis
frequency of cells with visually abnormal nuclei, combination with paclitaxel (TOV-21G cells [8]): significantly increased the frequency of cells with visually abnormal nuclei
hyperacetylation of α-tubulin ([9]; 24 hour treatment, 300 nM): increased hyperacetylation of α-tubulin
α-tubulin hyperacetylation, dose dependence ([9]; range of concentrations, 24 hours): dose-dependent increase in α-tubulin hyperacetylation
frequency of multipolar spindle formation, combination with paclitaxel (TOV-21G cells [2]; NuMA/α-tubulin co-staining, p = 0.0047 vs paclitaxel): 51.5%
frequency of multipolar spindle formation, combination with epothilone (TOV-21G cells [2]; epothilone 0.5 nM plus ACY-241): 51.3%
frequency of multipolar spindle formation, combination with paclitaxel [3]: 38.6%
frequency of multipolar mitotic spindle formation, single agent [3]: 10.7%
percentage of cells in S phase, combination with paclitaxel ([10]; A2780 and TOV-21G (3 days), MiaPaCa-2 (5 days)): significantly reduced the percentage of cells in S phase
induction of cell death (SubG1), combination with paclitaxel ([10]; relative to control or single agent treatment): significantly increased induction of cell death
suppression of tumor growth, combination with paclitaxel (MiaPaCa-2 xenografts): similarly significant efficacy
IC50 [4]: 4600 to 6100 nM
M phase arrest ([5]; 2 μM, single agent or in combination with paclitaxel): did not significantly increase M phase arrest
α-tubulin hyperacetylation, combination with paclitaxel [11]: synergistic increase in α-tubulin hyperacetylation
proliferation, combination with paclitaxel [6, 14]: significantly reduced proliferation
proliferation (absolute cell number) ([6]; 10 μM): completely suppressed proliferation
proliferation (absolute cell number) ([6]; doses up to 3 μM, 96 hours): modestly reduced proliferation
frequency of multipolar cell division, combination with paclitaxel (TOV-21G cells [12]): increased the frequency of multipolar cell division compared to each single agent
doses at which hyperacetylation of histone H3 was observed [13]: above 1 μM

C/C(=C\c1csc(C)n1)[C@@H]1C[C@@H]2O[C@]2(C)CCC[C@H](C)[C@H](O)[C@@H](C)C(=O)C(C)(C)[C@@H](O)CC(=O)O1 [epothilone, epothilone B, reference compound]
frequency of multipolar mitotic spindle formation, single agent (TOV-21G cells [2]; 0.5 nM, control 0.9%): 29.9%

Source: PMC5356834 (Oncotarget, 2016)
